Measurements from patent publication US20130281399A1, “TREATMENT OF DISEASES BY EPIGENETIC REGULATION” (RVX Therapeutics Inc., priority 2012, published 2013).

Assays:
Brd4 bromodomain 1 = molecular target: T1, Brd4 bromodomain 1 (Homo sapiens, UniProt O60885); test: Inhibition of binding of tetra-acetylated histone H4 to Brd4 bromodomain 1 (TR-FRET); conditions: His-tagged Brd4 bromodomain 1 200 nM, tetra-acetylated histone H4 peptide 25-50 nM, 2 hours room temperature
T1 construct: made in house; host or cells: E. coli BL21(DE3)
Description: Proteins were cloned and overexpressed with a N-terminal 6×His tag, then purified by nickel affinity followed by size exclusion chromatography. Briefly, E. coli BL21(DE3) cells were transformed with a recombinant expression vector encoding N-terminally Nickel affinity tagged bromodomains from Brd2, Brd3, Brd4. Cell cultures were incubated at 37° C. with shaking to the appropriate density and induced overnight with IPTG. The supernatant of lysed cells was loaded onto Ni-IDA column for purification. Eluted protein was pooled, concentrated and further purified by size exclusion chromatography. Fractions representing monomeric protein were pooled, concentrated, aliquoted, and frozen at −80° C. for use in subsequent experiments.
For inhibition assays, serially diluted test compound was added to these reactions in a 0.2% final concentration of DMSO. Final buffer concentrations were 30 mM HEPES pH 7.4, 30 mM NaCl, 0.3 mM CHAPS, 20 mM phosphate pH 7.0, 320 mM KF, 0.08% BSA). […] The binding inhibitory activity was shown by a decrease in 665 nm fluorescence relative to 620 nm. IC50 values were determined from a dose response curve.

SMILES	melting point [°C]	FRET activity (<50 uM) (Brd4 bromodomain 1)
COc1cc(OC)c2c(=O)[nH]c(-c3cc(C)c(OCCCCN4CCCC4)c(C)c3)nc2c1 [Example 78, 2-(3,5-Dimethyl-4-(4-(pyrrolidin-1-yl)butoxy)phenyl)-5,7-dimethoxyquinazolin-4(3H)-one]	180 to 181	Active
COc1cc(OC)c2c(=O)[nH]c(-c3ccc(OCCN4CCCC4)cc3)nc2c1 [Example 76, 5,7-Dimethoxy-2-(4-(2-(pyrrolidin-1-yl)ethoxy)phenyl)quinazolin-4(3H)-one]	226 to 227	Active
COc1cc(OCCOCc2ccccc2)cc2nc(-c3cc(C)nc(C)c3)[nH]c(=O)c12 [Example 109, 7-(2-(Benzyloxy)ethoxy)-2-(2,6-dimethylpyridin-4-yl)-5-methoxyquinazolin-4(3H)-one]	178 to 180	Active
COc1cc(OCCN2CCCC2)c2c(=O)[nH]c(-c3cc(C)nc(C)c3)nc2c1 [Example 102, 2-(2,6-Dimethylpyridin-4-yl)-7-methoxy-5-(2-(pyrrolidin-1-yl)ethoxy)quinazolin-4(3H)-one]	190 to 191	Active
Cc1cc(-c2nc3cc(OC(C)C)cc(OC(C)C)c3c(=O)[nH]2)cc(C)c1OCCN1CCCC1 [Example 88, 2-(3,5-Dimethyl-4-(2-(pyrrolidin-1-yl)ethoxy)phenyl)-5,7-diisopropoxyquinazolin-4(3H)-one]	65 to 68	Inactive
COCCOc1cc(OC)c2c(=O)[nH]c(-c3ccc(N4C[C@@H](C)N(C(C)=O)[C@@H](C)C4)cc3)nc2c1 [Example 9, 2-(4-((3R,5S)-4-Acetyl-3,5-dimethylpiperazin-1-yl)phenyl)-5-methoxy-7-(2-methoxyethoxy)quinazolin-4(3H)-one]	225 to 227	Active
COc1cc(OCCOC(C)C)cc2nc(-c3cc(C)nc(C)c3)[nH]c(=O)c12 [Example 107, 2-(2,6-Dimethylpyridin-4-yl)-7-(2-isopropoxyethoxy)-5-methoxyquinazolin-4(3H)-one]	188 to 189	
COc1cc(OC)c2c(=O)[nH]c(-c3ccc(N4CCN(C(=O)c5cccs5)CC4)cc3)nc2c1 [Example 24, 5,7-Dimethoxy-2-(4-(4-(thiophene-2-carbonyl)piperazin-1-yl)phenyl)quinazolin-4(3H)-one]		Active
COc1cc(OC)c2c(=O)[nH]c(-c3ccc(N4C[C@@H](C)N(C(C)C)[C@@H](C)C4)cc3)nc2c1 [Example 42, 2-(4-((3R,5S)-4-Isopropyl-3,5-dimethylpiperazin-1-yl)phenyl)-5,7-dimethoxyquinazolin-4(3H)-one]		Active
COc1cc(OC)c2c(=O)[nH]c(-c3cc(C)c(OC[C@@H]4CCC(=O)N4)c(C)c3)nc2c1 [Example 92, (S)-2-(3,5-Dimethyl-4-((5-oxopyrrolidin-2-yl)methoxy)phenyl)-5,7-dimethoxyquinazolin-4(3H)-one]		Active
COc1cc(OC)c2c(=O)[nH]c(-c3ccc(N4CCN(C(=O)c5ccncc5)CC4)cc3)nc2c1 [Example 23, 2-(4-(4-Isonicotinoylpiperazin-1-yl)phenyl)-5,7-dimethoxyquinazolin-4(3H)-one]		Active
COc1cc(OC)c2c(=O)[nH]c(-c3ccc(N4C[C@@H](C)N(C(C)=O)[C@@H](C)C4)cc3)nc2c1 [Example 36, 2-(4-((3R,5S)-4-Acetyl-3,5-dimethylpiperazin-1-yl)phenyl)-5,7-dimethoxyquinazolin-4(3H)-one]		Active
COc1cc(OC)c2c(=O)[nH]c(-c3cc(C)c(OCCN4CCCCC4)c(C)c3)nc2c1 [Example 72, 2-(3,5-Dimethyl-4-(2-(piperidin-1-yl)ethoxy)phenyl)-5,7-dimethoxyquinazolin-4(3H)-one]		Active
COc1cc(OC)c2c(=O)[nH]c(-c3ccc(Nc4ccncc4)cc3)nc2c1 [Example 60, 5,7-Dimethoxy-2-(4-(pyridin-4-ylamino)phenyl)quinazolin-4(3H)-one]		Active
CNC1CCN(c2ccc(-c3nc4cc(OC)cc(OC)c4c(=O)[nH]3)cc2)C1 (centres unmarked) [Example 44, 5,7-Dimethoxy-2-(4-(3-(methylamino)pyrrolidin-1-yl)phenyl)quinazolin-4(3H)-one]		Active
COc1cc(OC)c2c(=O)[nH]c(-c3ccc(N4CCC(NC(C)=O)CC4)cc3)nc2c1 [Example 13, N-(1-(4-(5,7-Dimethoxy-4-oxo-3,4-dihydroquinazolin-2-yl)phenyl)piperidin-4-yl)acetamide]		Active
COc1cc(OC)c2c(=O)[nH]c(-c3ccc(N4CCC(N(Cc5ccccc5)C(C)=O)CC4)nc3)nc2c1 [Example 49, N-Benzyl-N-(1-(5-(5,7-dimethoxy-4-oxo-3,4-dihydroquinazolin-2-yl)pyridin-2-yl)piperidin-4-yl)acetamide]		Active
CCCCCC(=O)N1CCN(c2ccc(-c3nc4cc(OC)cc(OC)c4c(=O)[nH]3)cc2)CC1 [Example 16, 2-(4-(4-Hexanoylpiperazin-1-yl)phenyl)-5,7-dimethoxyquinazolin-4(3H)-one]		Inactive
COc1cc(OC)c2c(=O)[nH]c(-c3ccc4[nH]c(CCN5CCCC5)cc4c3)nc2c1 [Example 57, 5,7-Dimethoxy-2-(2-(2-(pyrrolidin-1-yl)ethyl)-1H-indol-5-yl)quinazolin-4(3H)-one]		Active
COc1cc(OC)c2c(=O)[nH]c(-c3ccc4[nH]c(CO)cc4c3)nc2c1 [Example 53, 2-(2-(Hydroxymethyl)-1H-indol-5-yl)-5,7-dimethoxyquinazolin-4(3H)-one]		Active
COc1cc(OC)c2c(=O)[nH]c(-c3cc(C)c(OCCC4CN(C(C)=O)C4)c(C)c3)nc2c1 [Example 5, 2-(4-(2-(1-acetylazetidin-3-yl)ethoxy)-3,5-dimethylphenyl)-5,7-dimethoxyquinazolin-4(3H)-one]		Active
COc1cc(OC)c2c(=O)[nH]c(-c3ccc(N4CCC(NCC5CC5)C4)cc3)nc2c1 (centres unmarked) [Example 4, 2-(4-(3-(cyclopropylmethylamino)pyrrolidin-1-yl)phenyl)-5,7-dimethoxyquinazolin-4(3H)-one]		Active

Results, then the molecule that gave them:

melting point [°C]	FRET activity (<50 uM) (Brd4 bromodomain 1)	SMILES
260 to 262	Active	COCCOc1cc(OC)c2c(=O)[nH]c(-c3ccnc(C)c3)nc2c1 [Example 110, 5-methoxy-7-(2-methoxyethoxy)-2-(2-methylpyridin-4-yl)quinazolin-4(3H)-one]
157 to 158	Active	COc1cccc2nc(-c3cc(C)c(OCCN4CCCC4)c(C)c3)[nH]c(=O)c12 [Example 66, 2-(3,5-Dimethyl-4-(2-(pyrrolidin-1-yl)ethoxy)phenyl)-5-methoxyquinazolin-4(3H)-one]
	Active	COc1cc(OC)c2c(=O)[nH]c(-c3ccc(N4CCC(NC(=O)N(C)C)CC4)cc3)nc2c1 [Example 15, 3-(1-(4-(5,7-Dimethoxy-4-oxo-3,4-dihydroquinazolin-2-yl)phenyl)piperidin-4-yl)-1,1-dimethylurea]
228 to 230		COc1cc(OC)c2c(=O)[nH]c(-c3cc(C)c(OCCN4CCCC4)c(C)c3)nc2n1
	Active	COc1cc(OC)c2c(=O)[nH]c(-c3ccc(N4CCN(C(C)=O)CC4)cc3)nc2c1 [Example 11, 2-(4-(4-Acetylpiperazin-1-yl)phenyl)-5,7-dimethoxyquinazolin-4(3H)-one]
	Active	COc1cc(OC)c2c(=O)[nH]c(-c3ccc(N4CCC(NC(C)C)CC4)cc3)nc2c1 [Example 47, 2-(4-(4-(Isopropylamino)piperidin-1-yl)phenyl)-5,7-dimethoxyquinazolin-4(3H)-one]
	Active	COc1cc(OC)c2c(=O)[nH]c(-c3ccc(N4CCN(C(C)=O)C(C)C4)cc3)nc2c1 (centres unmarked) [Example 38, 2-(4-(4-Acetyl-3-methylpiperazin-1-yl)phenyl)-5,7-dimethoxyquinazolin-4(3H)-one]
	Inactive	COc1cc(OC)c2c(=O)[nH]c(-c3cc(C)c(OCCN4C(=O)c5ccccc5C4=O)c(C)c3)cc2c1 [Example 90, 2-(2-(4-(6,8-Dimethoxy-1-oxo-1,2-dihydroisoquinolin-3-yl)-2,6-dimethylphenoxy)ethyl)isoindoline-1,3-dione]
	Active	CCN(C(C)=O)C1CCN(c2ccc(-c3nc4cc(OC)cc(OC)c4c(=O)[nH]3)cc2)CC1 [Example 35, N-(1-(4-(5,7-Dimethoxy-4-oxo-3,4-dihydroquinazolin-2-yl)phenyl)piperidin-4-yl)-N-ethylacetamide]
	Active	CCCCN1CCN(c2ccc(-c3nc4cc(OC)cc(OC)c4c(=O)[nH]3)cc2)CC1 [Example 2, 2-(4-(4-butylpiperazin-1-yl)phenyl)-5,7-dimethoxyquinazolin-4(3H)-one]
	Active	COc1cc(OC)c2c(=O)[nH]c(-c3ccc(C4CCNCC4)cc3)nc2c1 [Example 43, 5,7-Dimethoxy-2-(4-(piperidin-4-yl)phenyl)quinazolin-4(3H)-one]
